Read-outs that look alike come from different tables or passages of the source.
What was measured:
[1] = test system: human PBMCs; test: LDH in media of LPS-challenged human PBMCs (cellular toxicity); type: cell-based; settings: 10 ng/ml LPS, 24 h, 3-MP 0 to 30 μM, vs LPS alone
Description: Human peripheral blood mononuclear cells (PBMCs), purchased from ATCC (Cat no. PCS-800–011, Lot no. 81215231, Manassas, VA, USA), were washed with ice-cold HBSS (ATCC 30–2213) containing 10% fetal bovine serum (FBS: ATCC 30–2020) and used for the experiment directly. The washed cells were suspended and maintained in RPMI media supplemented with 10% FBS, penicillin 100 U/mL, and streptomycin 100 µg/mL at 37 °C and 5% CO2. Approximately 5 × 10^5 cells were seeded into 24-well plates and allowed to equilibrate for 2 h. Pomalidomide or 3-MP, dissolved in 100% tissue culture grade dimethylsulfoxide (DMSO: Sigma Aldrich, St Louis, MO, USA), was then added to the wells. The final concentrations of drugs were 0.0, 0.6, 1.0, 10, 30, and 60 µM (n = 3–4 for each group). At 1 h after initiation of treatment, the cells were challenged with lipopolysaccharide (LPS, Sigma Aldrich, E.Coli 055:B5, Cat no. L4005-100MG, Lot no. 0000218759, Endotoxin Unit: 500,000 EU/mg, at a concentration of 10 ng/mL), and the media was collected after a further 24 h for evaluation of lactate dehydrogenase (LDH) activity as a marker of drug-induced cellular toxicity and concentrations of nitrite (In Vitro Toxicology Assay Kit, Lactic Dehydrogenase based, Promega, Cat no. G7891, Madison, WI, USA) (Griess Reagent System, Promega, Cat no. G2930) and TNF-α (human TNF-α ELISA MAX™ Deluxe Set Cat no. […]

[2] = test system: LPS-induced cytokines (TNF-α, IL-6, IL-10, IL-13) in plasma and cerebral cortex; test: Systemic and brain LPS anti-inflammatory study in rats; type: in vivo; settings: rat, 4 h
Description: They were administered, via the intraperitoneal (I.P.) route, nano-formulated 3-MP at a dose of 13.25 or 26.5 mg/kg (equimolar to a clinically translatable dose of 12.5 and 25 mg/kg thalidomide), vehicle or pomalidomide (25 mg/kg). One hour later, animals were administered either LPS (1 mg/kg, E.Coli 055:B5, Sigma Aldrich, in normal saline, 0.5 mg/mL) or an alike volume of saline (without LPS) via the I.P. route. The LPS dose was selected from prior pilot studies to provide a substantial but sub-maximal rise in plasma proinflammatory cytokine levels, in line with our prior research. The selected 3-MP and pomalidomide doses were chosen as they are equimolar to, or are less than, doses of thalidomide and analogues that have been verified to be well tolerated in our previous studies and are of translational relevance to humans. Four hours after LPS administration, the animals were euthanized, and blood and brain tissues were collected and placed on wet ice. Plasma was quickly separated from blood by centrifugation (10,000 × g, 5 min, 4 °C) and together with the brain samples (cerebral cortex) was stored at − 80 °C. At a later time, cerebral cortex samples were sonicated in a TRIS-based lysis buffer (Mesoscale Discovery) with 3 × protease/phosphatase inhibitors (Halt™ Protease and Phosphatase Inhibitor Cocktail, Thermo Fisher Scientific, Waltham, MA, USA). Samples were then centrifuged (10,000 × g, 5 min, 4 °C), supernatant separated, and protein concentrations were quantified by bicinchoninic acid assay (BCA, Thermo Fisher Scientific). Rat plasma and cerebral cortex samples were analyzed by multi-proinflammatory cytokine ELISA (V-PLEX Proinflammatory Panel 2 Rat Kit, Mesoscale Discovery) following the manufacturer’s protocol to quantify TNF-α, IL-6, IL-10, and IL-13 levels.

[3] = Ex vivo plasma stability, rat; type: in vitro ADME; settings: 100 μg/ml, 37 °C, 180 min
Description: Ex vivo evaluations of drug plasma and liver microsomal time-dependent breakdown are routinely undertaken to initially characterize the metabolic stability of new pharmacological compounds and were performed by WuXi AppTec (Shanghai, China; Study No. 424847–20,211,214-MMS). Rat and human plasma and liver microsomes were purchased from Xenotech (Sprague Dawley rat, Catalog no. R1000; BioIVT, Westbury, NY) or Corning (mixed human, Catalog no. 452117; Sigma). Rat and human plasma was incubated at 37 °C on a shaker and spiked with 3-MP (100 μg/ml, n = 3). Thereafter, samples were time-dependently (0 to 180 min) removed, immediately frozen (− 80 °C), and subjected to LC–MS/MS analysis at a later time.

[4] = test system: plasma TNF-α, IL-1β, IL-6, IL-10 in MCAo-challenged rats; test: MCAo ischemic stroke: plasma cytokines at 48 h; type: in vivo; settings: rat MCAo, 3-MP I.P., plasma at 48 h
[5] = molecular target: T1, Adrenergic Alpha2A receptor (Homo sapiens, UniProt P08913); test: PDSP radioligand binding; settings: read-out: 3-MP concentration required to induce 50% inhibition of PDSP radioligand binding
T1 construct: NIMH Psychoactive Drug Screening Program (PDSP)
Description: (§1) To evaluate potential binding at classical neurological drug targets, 3-MP and 3,6’-DP were submitted to the National Institute on Mental Health (NIMH) Psychoactive Drug Screening Program (PDSP: Univ. N Carolina, Chapel Hill, NC, USA < https://pdspdb.unc.edu/pdspweb/ >) as powdered samples in the provided vials. The materials were then prepared at the PDSP in 10% DMSO, subjected to multiple assay screens, and processed as per the PDSP Assay Protocol Book (Version 3, March 2018). Compounds that exceeded an initial 10 uM binding threshold were then delegated for secondary dose–response analysis. This screen comprised a 45-target comprehensive panel of common brain receptor and transporter drug targets.

[6] = molecular target: T2, Adrenergic Alpha2C receptor (Homo sapiens, UniProt P18825); test: PDSP radioligand binding; settings: read-out: 3-MP concentration required to induce 50% inhibition of PDSP radioligand binding
T2 construct: NIMH Psychoactive Drug Screening Program (PDSP)
Description: as §1

[7] = molecular target: Muscarinic M2 receptor (Homo sapiens, UniProt P08172); test: PDSP radioligand binding; settings: read-out: 3-MP concentration required to induce 50% inhibition of PDSP radioligand binding
Description: as §1

[8] = Sprague Dawley, rat, 1 μM
[9] = human, 1 μM
[10] = 13.25 and 26.5 mg/kg I.P. 1 h before LPS 1 mg/kg I.P.

T1 sequence (P08913 whole entry): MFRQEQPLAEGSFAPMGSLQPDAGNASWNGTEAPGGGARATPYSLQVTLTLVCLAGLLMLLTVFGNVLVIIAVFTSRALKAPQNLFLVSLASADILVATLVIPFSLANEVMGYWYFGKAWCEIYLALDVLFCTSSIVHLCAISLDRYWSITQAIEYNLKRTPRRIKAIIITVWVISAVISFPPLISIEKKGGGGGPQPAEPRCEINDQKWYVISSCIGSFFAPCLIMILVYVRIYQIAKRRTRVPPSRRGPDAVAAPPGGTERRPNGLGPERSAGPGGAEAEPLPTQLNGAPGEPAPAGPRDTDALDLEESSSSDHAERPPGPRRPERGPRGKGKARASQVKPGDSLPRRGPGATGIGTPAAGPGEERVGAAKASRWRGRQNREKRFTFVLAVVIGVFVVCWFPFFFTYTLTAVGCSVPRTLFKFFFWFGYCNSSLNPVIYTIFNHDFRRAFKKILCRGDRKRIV
Muscarinic M2 receptor, sequence (P08172 whole entry): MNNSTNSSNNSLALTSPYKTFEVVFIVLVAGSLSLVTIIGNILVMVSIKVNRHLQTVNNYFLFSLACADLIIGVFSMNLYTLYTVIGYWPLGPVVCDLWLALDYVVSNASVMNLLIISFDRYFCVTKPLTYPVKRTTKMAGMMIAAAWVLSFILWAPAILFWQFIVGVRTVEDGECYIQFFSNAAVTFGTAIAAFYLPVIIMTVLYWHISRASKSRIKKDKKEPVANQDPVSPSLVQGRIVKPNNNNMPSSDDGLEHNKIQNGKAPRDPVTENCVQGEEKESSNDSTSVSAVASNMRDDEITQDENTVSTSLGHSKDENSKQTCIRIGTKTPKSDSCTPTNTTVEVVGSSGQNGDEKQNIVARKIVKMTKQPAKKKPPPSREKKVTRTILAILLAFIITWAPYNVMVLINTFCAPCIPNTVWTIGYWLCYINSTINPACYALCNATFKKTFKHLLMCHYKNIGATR
T2 sequence (P18825 whole entry): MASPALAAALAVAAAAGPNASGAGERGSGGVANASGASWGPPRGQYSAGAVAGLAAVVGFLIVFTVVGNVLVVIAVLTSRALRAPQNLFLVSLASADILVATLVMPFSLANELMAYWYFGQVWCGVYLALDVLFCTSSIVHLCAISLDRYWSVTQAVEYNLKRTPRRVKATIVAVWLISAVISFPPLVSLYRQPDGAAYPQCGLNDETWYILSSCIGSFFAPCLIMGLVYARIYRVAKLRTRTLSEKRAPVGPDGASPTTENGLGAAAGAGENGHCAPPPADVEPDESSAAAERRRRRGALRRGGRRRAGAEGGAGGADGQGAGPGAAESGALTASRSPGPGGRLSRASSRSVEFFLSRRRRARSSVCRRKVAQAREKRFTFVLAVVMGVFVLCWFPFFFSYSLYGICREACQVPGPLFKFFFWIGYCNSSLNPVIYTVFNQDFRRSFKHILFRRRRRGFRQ

With Nc1cccc2c1C(=S)N(C1CCC(=O)NC1=O)C2=O (stereo not drawn) [3-MP, 3-Monothiopomalidomide] the LDH media levels [1] was “without elevating”, the “LPS-mediated reduction in plasma IL-13” value ([2]; 3-MP both doses I.P., LPS 1 mg/kg) was “abated” and the “LPS-mediated elevations in brain IL-13” value ([2]; 3-MP both doses and pomalidomide I.P., LPS 1 mg/kg) was “maintained”. For the same compound, the “decline in IL-6 brain levels” value ([2]; 3-MP low dose 13.25 mg/kg I.P., pomalidomide 25 mg/kg I.P., LPS 1 mg/kg) was “failed to achieve statistical significance”, the “LPS-induced rise in plasma IL-6” value [2, 10] was “reduced” and the “LPS-induced rise in plasma TNF-α” value [2, 10] was “reduced”. For the same compound, the “IL-10 elevation induced by LPS in plasma or brain” value ([2]; high- or low-dose 3-MP or pomalidomide I.P., LPS 1 mg/kg) was “not lessened”, the “stability in rat plasma” value [3] was “relatively stable” and the “MCAo-induced elevation in plasma IL-1β” value [4] was “significantly mitigated”. The “MCAo-induced elevation in plasma IL-6” value [4] was “significantly mitigated”, the “MCAo-induced elevation in plasma TNF-α” value [4] was “significantly mitigated” and the “plasma anti-inflammatory IL-10 levels” value [4] was “rise”. The IC50 [5] was > 10 µM, the IC50 [6] was > 10 µM and the IC50 [7] was > 10 µM. The “reduction of 3-MP levels following 60-min incubation” value ([8]; 60 min) was 24.3%, the “Remaining (NCF = 60 min)” value ([8]; microsomes, 1 h) was 116.4% and the “Remaining (T = 60 min)” value ([8]; microsomes, 1 h) was 75.7%. For the same compound, the “reduction of 3-MP levels following 60-min incubation” value ([9]; 60 min) was 8.2%, the “Remaining (NCF = 60 min)” value ([9]; microsomes, 1 h) was 115.3% and the “Remaining (T = 60 min)” value ([9]; microsomes, 1 h) was 91.8%.

From PMC12397098, “3-Monothiopomalidomide, a new immunomodulatory imide drug (IMiD), blunts inflammation and mitigates ischemic stroke in the rat” (GeroScience, 2025)
